From patent US6664251B2, “Benzothiazine derivative” (Daiichi Suntory Pharma Co., Ltd., priority 1993, dated 2003)

What was measured:
serotonin-2 receptor = experiment: Anti-serotonin action (anti-5-HT action): contraction of isolated superior mesenteric artery induced by serotonin; conditions: contraction induced by 10^−5 M serotonin (5-HT) taken as 100%, Hartley male guinea pig superior mesenteric artery; for Anti 5-HT action (% of Control) 10^−6 M: test drug 10^−6 M; for Anti 5-HT action (% of Control) 10^−7 M: test drug 10^−7 M
Procedure: (1) Anti-Serotonin Action (Anti-5-HT Action)
A preparation cut in a helical form was suspended under 0.3 g load in a Magnus cylinder filled with the Tyrode solution which had been aerated with a gas mixture of 95% O2+5% CO2 and maintained at 37° C. Using an isometric transducer (“UL-10”, manufactured by SHINKOH K.K.) and a pressure preamplifier (“DSA-605A”, manufactured by SHINKOH K.K.), variations in tension were measured. The isometric tensions were recorded on a pen-writing recorder (“VP-6537A”, manufactured by NATIONAL K.K.). Taking the contraction induced by 10^−5 M serotonin (5-HT) as 100%, the percent contractions in the presence of each test drug at 10^−7 and 10^−6 M were determined as anti-5-HT action.

α1 receptor = experiment: Anti-α1 action: tonic contraction of isolated thoracic aorta induced by norepinephrine; conditions: tonic contraction induced by 10^−5 M norepinephrine (NE) taken as 100%, Hartley male guinea pig thoracic aorta; for Anti α1 action (% of Control) 10^−7 M: test drug 10^−7 M; for Anti α1 action (% of Control) 10^−8 M: test drug 10^−8 M
Procedure: The thoracic aorta of each Hartley male guinea pig (body weight: 300-500 g) was excised. A preparation cut in a helical form was suspended under 1 g load in a Magnus cylinder filled with the Tyrode solution which had been aerated with a gas mixture of 95% O2+5% CO2 and maintained at 37° C. Using an isometric transducer (“TB-612J”, manufactured by NIHON KOHDEN) and a pressure preamplifier (“AP-620G”, manufactured by NIHON KOHDEN), variations in tension were measured. The isometric tensions were recorded on a thermal pen-writing recorder (“WT-647G”, manufactured by NIHON KOHDEN).
Taking the tonic contraction induced by 10^−5 M norepinephrine (NE) as 100%, the percent contractions upon addition of each test drug at 10^−8 and 10^−7 M were determined as anti-α1 action.

## O=S1(=O)c2ccccc2C2(CN1CCCN1CCN(c3ccc(O)cc3)CC1)OCCO2 [Compound No. 37, 2-[3-[4-(4-hydroxyphenyl)piperazin-1-yl]propyl]-3,4-dihydro-2H-1,2-benzothiazin-4-one 1,1-dioxide ethylene acetal]
serotonin-2 receptor
  Anti 5-HT action (% of Control) 10^−6 M: 8.3 % of Control
  Anti 5-HT action (% of Control) 10^−7 M: 15.7 % of Control
α1 receptor
  Anti α1 action (% of Control) 10^−7 M: 96.2 % of Control
  Anti α1 action (% of Control) 10^−8 M: 100 % of Control

## O=C(c1ccc(F)cc1)C1CCN(CCCN2CC3(OCCO3)c3ccccc3S2(=O)=O)CC1 [Compound No. 40, 2-[3-[4-(4-fluorobenzoyl)piperidino]-propyl]-3,4-dihydro-2H-1,2-benzothiazine-4-spiro-2′-(1′,3′-dioxolan) 1,1-dioxide]
serotonin-2 receptor
  Anti 5-HT action (% of Control) 10^−6 M: 13.4 % of Control
  Anti 5-HT action (% of Control) 10^−7 M: 37.4 % of Control
α1 receptor
  Anti α1 action (% of Control) 10^−7 M: 73.2 % of Control
  Anti α1 action (% of Control) 10^−8 M: 98.3 % of Control

## O=S1(=O)c2ccccc2C2(CN1CCCN1CCN(c3ccccn3)CC1)OCCO2 [Compound No. 46, 2-[3-[4-(2-pyridyl)piperazin-1-yl]-propyl]-3,4-dihydro-2H-1,2-benzothiazin-4-one 1,1-dioxide ethylene acetal]
serotonin-2 receptor
  Anti 5-HT action (% of Control) 10^−6 M: 5.5 % of Control
  Anti 5-HT action (% of Control) 10^−7 M: 39.8 % of Control
α1 receptor
  Anti α1 action (% of Control) 10^−7 M: 97.4 % of Control
  Anti α1 action (% of Control) 10^−8 M: 100 % of Control

## COC1(OC)CN(CCCN2CCN(c3ccc(F)cc3)CC2)S(=O)(=O)c2ccccc21 [Compound No. 55, 2-[3-[4-(4-fluorophenyl)piperazin-1-yl]propyl]-4,4-dimethoxy-3,4-dihydro-2H-1,2-benzothiazine 1,1-dioxide]
serotonin-2 receptor
  Anti 5-HT action (% of Control) 10^−6 M: 7.4 % of Control
  Anti 5-HT action (% of Control) 10^−7 M: 23.4 % of Control
α1 receptor
  Anti α1 action (% of Control) 10^−7 M: 89.2 % of Control
  Anti α1 action (% of Control) 10^−8 M: 100 % of Control

## COC1=CN(CCCN2CCN(c3ccc(F)cc3)CC2)S(=O)(=O)c2ccccc21 [Compound No. 56, 2-[3-[4-(4-fluorophenyl)piperazin-1-yl]propyl]-4-methoxy-2H-1,2-benzothiazine 1,1-dioxide]
serotonin-2 receptor
  Anti 5-HT action (% of Control) 10^−6 M: 16.9 % of Control
  Anti 5-HT action (% of Control) 10^−7 M: 60.8 % of Control
α1 receptor
  Anti α1 action (% of Control) 10^−7 M: 69.5 % of Control
  Anti α1 action (% of Control) 10^−8 M: 95.4 % of Control

## COC1CN(CCCN2CCN(c3ccc(F)cc3)CC2)S(=O)(=O)c2ccccc21 (centres unmarked) [Compound No. 57, 2-[3-[4-(4-fluorophenyl)piperazin-1-yl]propyl]-4-methoxy-3,4-dihydro-2H-1,2-benzothiazine 1,1-dioxide]
serotonin-2 receptor
  Anti 5-HT action (% of Control) 10^−6 M: 10.0 % of Control
  Anti 5-HT action (% of Control) 10^−7 M: 22.0 % of Control
α1 receptor
  Anti α1 action (% of Control) 10^−7 M: 81.6 % of Control
  Anti α1 action (% of Control) 10^−8 M: 97.3 % of Control

## O=S1(=O)c2ccccc2C2(CN1CCCN1CCN(c3ccc(F)cc3)CC1)OCCO2 [Compound No. 62, 2-[3-[4-(4-fluorophenyl)piperazin-1-yl]propyl]-3,4-dihydro-2H-1,2-benzothiazin-4-one 1,1-dioxide ethylene acetal]
serotonin-2 receptor
  Anti 5-HT action (% of Control) 10^−6 M: 3.3 % of Control
  Anti 5-HT action (% of Control) 10^−7 M: 14.1 % of Control
α1 receptor
  Anti α1 action (% of Control) 10^−7 M: 53.1 % of Control
  Anti α1 action (% of Control) 10^−8 M: 98.1 % of Control

## O=S1(=O)c2ccccc2C2(CN1CCCN1CCN(c3ccc(F)cc3)CC1)OCCCO2 [Compound No. 64, 2-[3-[4-(4-fluorophenyl)piperazin-1-yl]propyl]-3,4-dihydro-2H-1,2-benzothiazine-4-spiro-2′-(1′,3′-dioxane) 1,1-dioxide]
serotonin-2 receptor
  Anti 5-HT action (% of Control) 10^−6 M: 13.8 % of Control
  Anti 5-HT action (% of Control) 10^−7 M: 24.8 % of Control
α1 receptor
  Anti α1 action (% of Control) 10^−7 M: 84.9 % of Control
  Anti α1 action (% of Control) 10^−8 M: 97.3 % of Control

## O=S1(=O)c2ccccc2C2(CN1CCCN1CCN(c3ccc(F)cc3)CC1)SCCS2 [Compound No. 66, 2-[3-[4-(4-fluorophenyl)piperazin-1-yl]propyl]-3,4-dihydro-2H-1,2-benzothiazine-4-spiro-2′-(1′,3′-dithiolan) 1,1-dioxide]
serotonin-2 receptor
  Anti 5-HT action (% of Control) 10^−6 M: 2.8 % of Control
  Anti 5-HT action (% of Control) 10^−7 M: 66.6 % of Control
α1 receptor
  Anti α1 action (% of Control) 10^−7 M: 86.5 % of Control
  Anti α1 action (% of Control) 10^−8 M: 100 % of Control

## O=C(c1ccc(F)cc1)C1CCN(CCCN2CC(O)c3ccccc3S2(=O)=O)CC1 (centres unmarked) [Compound No. 76, 2-[3-[4-(4-fluorobenzoyl)piperidino]-propyl]-4-hydroxy-3,4-dihydro-2H-1,2-benzothiazine 1,1-dioxide]
serotonin-2 receptor
  Anti 5-HT action (% of Control) 10^−6 M: 21.7 % of Control
  Anti 5-HT action (% of Control) 10^−7 M: 53.9 % of Control
α1 receptor
  Anti α1 action (% of Control) 10^−7 M: 88.2 % of Control
  Anti α1 action (% of Control) 10^−8 M: 100 % of Control

## O=S1(=O)c2ccccc2C(O)CN1CCCN1CCN(c2ccc(F)cc2)CC1 (centres unmarked) [Compound No. 77, 2-[3-[4-(4-fluorophenyl)piperazin-1-yl]propyl]-4-hydroxy-3,4-dihydro-2H-1,2-benzothiazine 1,1-dioxide]
serotonin-2 receptor
  Anti 5-HT action (% of Control) 10^−6 M: 18.2 % of Control
  Anti 5-HT action (% of Control) 10^−7 M: 45.7 % of Control
α1 receptor
  Anti α1 action (% of Control) 10^−7 M: 79.6 % of Control
  Anti α1 action (% of Control) 10^−8 M: 100 % of Control

## COc1cccc2c1C1(CN(CCN3CCN(c4ccc(F)cc4)CC3)S2(=O)=O)OCCO1 [Compound No. 109, 2-[2-[4-(4-fluorophenyl)piperazin-1-yl]ethyl]-5-methoxy-3,4-dihydro-2H-1,2-benzothiazin-4-one 1,1-dioxide ethylene acetal]
serotonin-2 receptor
  Anti 5-HT action (% of Control) 10^−7 M: 10.5 % of Control
α1 receptor
  Anti α1 action (% of Control) 10^−7 M: 96.1 % of Control
  Anti α1 action (% of Control) 10^−8 M: 99.3 % of Control

## COc1cccc2c1C1(CN(CCCN3CCN(c4ccc(F)cc4)CC3)S2(=O)=O)OCCO1 [Compound No. 110, 2-[3-[4-(4-fluorophenyl)piperazin-1-yl]propyl]-5-methoxy-3,4-dihydro-2H-1,2-benzothiazin-4-one 1,1-dioxide ethylene acetal]
serotonin-2 receptor
  Anti 5-HT action (% of Control) 10^−7 M: 5.6 % of Control
α1 receptor
  Anti α1 action (% of Control) 10^−7 M: 81.1 % of Control
  Anti α1 action (% of Control) 10^−8 M: 100 % of Control

## COc1cccc2c1C1(CN(CCCN3CCN(c4ccc(O)cc4)CC3)S2(=O)=O)OCCO1 [Compound No. 111, 2-[3-[4-(4-hydroxyphenyl)piperazin-1-yl]propyl]-5-methoxy-3,4-dihydro-2H-1,2-benzothiazin-4-one 1,1-dioxide ethylene acetal]
serotonin-2 receptor
  Anti 5-HT action (% of Control) 10^−7 M: 10.9 % of Control
α1 receptor
  Anti α1 action (% of Control) 10^−7 M: 98.6 % of Control
  Anti α1 action (% of Control) 10^−8 M: 100.9 % of Control

## O=S1(=O)c2cccc(Cl)c2C2(CN1CCCN1CCN(c3ccc(F)cc3)CC1)OCCO2 [Compound No. 113, 5-chloro-2-[3-[4-(4-fluorophenyl)piperazin-1-yl]propyl]-3,4-dihydro-2H-1,2-benzothiazin-4-one 1,1-dioxide ethylene acetal]
serotonin-2 receptor
  Anti 5-HT action (% of Control) 10^−7 M: 49.5 % of Control
α1 receptor
  Anti α1 action (% of Control) 10^−7 M: 89.3 % of Control
  Anti α1 action (% of Control) 10^−8 M: 98.3 % of Control

## O=S1(=O)c2cccc(Cl)c2C2(CN1CCCN1CCN(c3ccc(O)cc3)CC1)OCCO2 [Compound No. 114, 5-chloro-2-[3-[4-(4-hydroxyphenyl)piperazin-1-yl]propyl]-3,4-dihydro-2H-1,2-benzothiazin-4-one 1,1-dioxide ethylene acetal]
serotonin-2 receptor
  Anti 5-HT action (% of Control) 10^−7 M: 23.5 % of Control
α1 receptor
  Anti α1 action (% of Control) 10^−7 M: 98.9 % of Control
  Anti α1 action (% of Control) 10^−8 M: 101.1 % of Control
